# In patent publication US20020137929A1, “1 - (3-heterocyclylphenyl) isothiourea, -isourea, -guanidine and -amidine herbicidal agents” (Intellectual Property Department, BASF Aktiengesellschaft, priority 1998, published 2002):
# Assays:
# ECHCG (Barnyardgrass) = test: Preemergence herbicidal evaluation; assay type: in vivo, Echinochloa crus-galli; settings: rated 4-5 weeks after treatment
# In short: (§1)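 Seeds were mixed with potting soil and planted on about one inch of soil, then sprayed with test compound in aqueous acetone at about 0.0156 to 0.500 kg per hectare. Plants grew under standard greenhouse care and were visually rated 0-9 against untreated controls 4-5 weeks post-treatment.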
# MOOVA (Monochoria) = test: Preemergence weed control under flooded paddy conditions; assay type: in vivo, Monochoria vaginalis; settings: rated 3-4 weeks after treatment
# In short: (§2)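 Silt loam, seeds in top 0.5 cm; flood held 1.5-3 cm; test cpd as acetone/water 50/50 into flood water, ~0.0313-0.500 kg/ha a.i.; greenhouse 3-4 wk; visual 0-9 score vs control.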
# [1] = test system: TRZAWR (Wheat, Winter, cv Riband); test: Preemergence herbicidal evaluation; assay type: in vivo, Triticum aestivum; settings: rated 4-5 weeks after treatment
# In short: as §1
# [2] = test system: IPOHE (Morningglory, Ivyleaf); test: Preemergence herbicidal evaluation; assay type: in vivo, Ipomoea hederacea; settings: rated 4-5 weeks after treatment
# In short: as §1
# ABUTH (Velvetleaf) = test: Postemergence herbicidal evaluation; assay type: in vivo, Abutilon theophrasti; settings: for ABUTH herbicidal rating: postemergence
# In short: (§3)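 Visual 0–9 rating versus control (stand, vigor, malformation, size, chlorosis, overall appearance), taken four to five weeks post-spray. Two-week-old seedlings received roughly 0.0156–0.500 kg/ha active in acetone/water (50/50) with 0.5% TWEEN 20 via nozzle at 40 psi.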
# [3] = test system: TRZAWR (Wheat, Winter, cv Riband); test: Postemergence herbicidal evaluation; assay type: in vivo, Triticum aestivum; settings: for TRZAWR herbicidal rating: postemergence
# In short: as §3
# ORYSAT (Rice, Tebonnet) = test: Preemergence herbicidal evaluation; assay type: in vivo, Oryza sativa, (L.) Tebonnet; settings: rated 4-5 weeks after treatment
# In short: as §1
# [4] = test system: ECHORC (Watergrass (Calif.)); test: Postemergence weed control under flooded paddy conditions; assay type: in vivo, Echinochloa oryzoides; settings: postemergence weeds
# In short: (§4)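 With weeds 3 to 5 cm tall and rice at the 1.5 to 2.5 leaf stage, containers were flooded and water held 1.5 to 3 cm above soil. Compounds in 50/50 v/v aqueous/acetone went into the flood water at about 0.0313 to 0.500 kg/ha a.i. Effects were visually rated 0–9 against controls after three to four weeks in the greenhouse.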
# SETVI (Foxtail, Green) = test: Preemergence herbicidal evaluation; assay type: in vivo, Setaria viridis; settings: rated 4-5 weeks after treatment
# In short: as §1
# CYPIR (Rice Flatsedge) = test: Postemergence weed control under flooded paddy conditions; assay type: in vivo, Cyperus iria; settings: postemergence weeds
# In short: as §4
# [5] = test system: CHEAL (Lambsquarters, Common); test: Preemergence herbicidal evaluation; assay type: in vivo, Chenopodium album; settings: rated 4-5 weeks after treatment
# In short: as §1
# [6] = test system: ECHORC (Watergrass (Calif.)); test: Preemergence weed control under flooded paddy conditions; assay type: in vivo, Echinochloa oryzoides; settings: rated 3-4 weeks after treatment
# In short: as §2
# [7] = test system: IPOHE (Morningglory, Ivyleaf); test: Postemergence herbicidal evaluation; assay type: in vivo, Ipomoea hederacea; settings: for IPOHE herbicidal rating: postemergence
# In short: as §3
# [8] = Rate 0.0313 kg/ha, rated 3 to 4 weeks after treatment
# [9] = Rate 0.0625 kg/ha, rated 3 to 4 weeks after treatment
# [10] = Rate 0.1250 kg/ha, rated 3 to 4 weeks after treatment
# [11] = Rate 0.2500 kg/ha, rated 3 to 4 weeks after treatment
# [12] = rate 0.1160 kg/ha, 3-4 weeks after treatment
# [13] = rate 0.2310 kg/ha, 3-4 weeks after treatment
# [14] = rate 0.4630 kg/ha, 3-4 weeks after treatment
structure (smiles),measurement,setting,value
"CCOC(=O)CN1C(=O)C(CC(=O)OC(C)C)SC1=Nc1cc(-n2c(=O)cc(C(F)(F)F)n(C)c2=O)c(F)cc1Cl (stereo not drawn) [Compound 60, 2-{{2-Chloro-5-[3,6-dihydro-3-methyl-2,6-dioxo-4-(trifluoromethyl)-1(2H)-pyrimidinyl]-4-fluoro-phenyl}imino}-4-oxo-3,5-thiazolidinediacetic acid, 3-ethyl isopropyl ester]",Preemergence herbicidal rating ECHCG,ECHCG (Barnyardgrass); rate 0.0156 kg/ha,0.0
same,Preemergence herbicidal rating ECHCG,ECHCG (Barnyardgrass); rate 0.0313 kg/ha,0.0
same,Preemergence herbicidal rating ECHCG,ECHCG (Barnyardgrass); rate 0.0625 kg/ha,0.0
same,Preemergence herbicidal rating ECHCG,ECHCG (Barnyardgrass); rate 0.1250 kg/ha,0.0
same,Preemergence herbicidal rating ECHCG,ECHCG (Barnyardgrass); rate 0.2500 kg/ha,0.5
same,Preemergence herbicidal rating ECHCG,ECHCG (Barnyardgrass); rate 0.5000 kg/ha,2.0
same,MOOVA herbicidal effect rating,MOOVA (Monochoria); 0.0313 kg/ha,9.0
same,MOOVA herbicidal effect rating,MOOVA (Monochoria); 0.0625 kg/ha,9.0
same,MOOVA herbicidal effect rating,MOOVA (Monochoria); 0.1250 kg/ha,9.0
same,MOOVA herbicidal effect rating,MOOVA (Monochoria); 0.2500 kg/ha,9.0
same,Preemergence herbicidal rating TRZAWR,[1]; rate 0.0156 kg/ha,0.0
same,Preemergence herbicidal rating TRZAWR,[1]; rate 0.0313 kg/ha,0.0
same,Preemergence herbicidal rating TRZAWR,[1]; rate 0.0625 kg/ha,0.0
same,Preemergence herbicidal rating TRZAWR,[1]; rate 0.1250 kg/ha,1.0
same,Preemergence herbicidal rating TRZAWR,[1]; rate 0.2500 kg/ha,1.0
same,Preemergence herbicidal rating IPOHE,[2]; rate 0.0156 kg/ha,0.0
same,Preemergence herbicidal rating IPOHE,[2]; rate 0.0313 kg/ha,0.0
same,Preemergence herbicidal rating IPOHE,[2]; rate 0.0625 kg/ha,0.0
same,Preemergence herbicidal rating IPOHE,[2]; rate 0.1250 kg/ha,2.0
same,Preemergence herbicidal rating IPOHE,[2]; rate 0.2500 kg/ha,5.0
same,Preemergence herbicidal rating IPOHE,[2]; rate 0.5000 kg/ha,9.0
same,Postemergence herbicidal rating ABUTH,ABUTH (Velvetleaf); Rate 0.0158 kg/ha,9.0
same,Postemergence herbicidal rating ABUTH,ABUTH (Velvetleaf); Rate 0.0315 kg/ha,9.0
same,Postemergence herbicidal rating ABUTH,ABUTH (Velvetleaf); Rate 0.0630 kg/ha,9.0
same,Postemergence herbicidal rating TRZAWR,[3]; Rate 0.0158 kg/ha,4.5
same,Postemergence herbicidal rating TRZAWR,[3]; Rate 0.0315 kg/ha,4.5
same,Postemergence herbicidal rating TRZAWR,[3]; Rate 0.0630 kg/ha,4.5
same,Preemergence herbicidal rating ORYSAT,"ORYSAT (Rice, Tebonnet); rate 0.0156 kg/ha",0.0
same,Preemergence herbicidal rating ORYSAT,"ORYSAT (Rice, Tebonnet); rate 0.0313 kg/ha",0.0
same,Preemergence herbicidal rating ORYSAT,"ORYSAT (Rice, Tebonnet); rate 0.0625 kg/ha",0.0
same,Preemergence herbicidal rating ORYSAT,"ORYSAT (Rice, Tebonnet); rate 0.1250 kg/ha",0.5
same,Preemergence herbicidal rating ORYSAT,"ORYSAT (Rice, Tebonnet); rate 0.2500 kg/ha",2.0
same,Preemergence herbicidal rating ORYSAT,"ORYSAT (Rice, Tebonnet); rate 0.5000 kg/ha",7.0
same,Herbicidal rating ECHORC,[4]; [8],7.0
same,Herbicidal rating ECHORC,[4]; [9],9.0
same,Herbicidal rating ECHORC,[4]; [10],9.0
same,Herbicidal rating ECHORC,[4]; [11],9.0
same,Preemergence herbicidal rating SETVI,"SETVI (Foxtail, Green); rate 0.0156 kg/ha",0.0
same,Preemergence herbicidal rating SETVI,"SETVI (Foxtail, Green); rate 0.0313 kg/ha",0.5
same,Preemergence herbicidal rating SETVI,"SETVI (Foxtail, Green); rate 0.0625 kg/ha",0.5
same,Preemergence herbicidal rating SETVI,"SETVI (Foxtail, Green); rate 0.1250 kg/ha",4.5
same,Preemergence herbicidal rating SETVI,"SETVI (Foxtail, Green); rate 0.2500 kg/ha",4.5
same,Preemergence herbicidal rating SETVI,"SETVI (Foxtail, Green); rate 0.5000 kg/ha",8.0
same,Herbicidal rating CYPIR,CYPIR (Rice Flatsedge); [8],3.0
same,Herbicidal rating CYPIR,CYPIR (Rice Flatsedge); [9],3.0
same,Herbicidal rating CYPIR,CYPIR (Rice Flatsedge); [10],6.0
same,Herbicidal rating CYPIR,CYPIR (Rice Flatsedge); [11],6.0
same,Preemergence herbicidal rating CHEAL,[5]; rate 0.0156 kg/ha,9.0
same,Preemergence herbicidal rating CHEAL,[5]; rate 0.0313 kg/ha,8.0
same,Preemergence herbicidal rating CHEAL,[5]; rate 0.0625 kg/ha,9.0
same,Preemergence herbicidal rating CHEAL,[5]; rate 0.1250 kg/ha,9.0
same,Preemergence herbicidal rating CHEAL,[5]; rate 0.2500 kg/ha,9.0
same,Preemergence herbicidal rating CHEAL,[5]; rate 0.5000 kg/ha,9.0
same,ECHORC herbicidal effect rating,[6]; 0.0313 kg/ha,7.0
same,ECHORC herbicidal effect rating,[6]; 0.0625 kg/ha,9.0
same,ECHORC herbicidal effect rating,[6]; 0.1250 kg/ha,9.0
same,ECHORC herbicidal effect rating,[6]; 0.2500 kg/ha,9.0
same,Postemergence herbicidal rating IPOHE,[7]; Rate 0.0158 kg/ha,9.0
same,Postemergence herbicidal rating IPOHE,[7]; Rate 0.0315 kg/ha,9.0
same,Postemergence herbicidal rating IPOHE,[7]; Rate 0.0630 kg/ha,9.0
"CCOC(=O)CN1C(=O)C(=C2CCCC2)SC1=Nc1cc(-n2c(=O)cc(C(F)(F)F)n(C)c2=O)c(F)cc1Cl [Compound 18, Ethyl 2-{{2-chloro-5-[3,6-dihydro-3-methyl-2,6-dioxo-4-(trifluoromethyl)-1(2H)-pyrimidinyl]-4-fluorophenyl}imino}-5-cyclopentylidene-4-oxo-3-thiazolidineacetate]",ECHCG preemergence herbicidal rating,ECHCG (Barnyardgrass); rate 0.1250 kg/ha,0.0
same,ECHCG preemergence herbicidal rating,ECHCG (Barnyardgrass); rate 0.2500 kg/ha,0.0
same,Herbicidal rating MOOVA,MOOVA (Monochoria); 0.1160 kg/ha,9.0
same,Herbicidal rating MOOVA,MOOVA (Monochoria); 0.2310 kg/ha,9.0
same,Herbicidal rating MOOVA,MOOVA (Monochoria); 0.4630 kg/ha,9.0
same,TRZAWR preemergence herbicidal rating,[1]; rate 0.1250 kg/ha,0.0
same,TRZAWR preemergence herbicidal rating,[1]; rate 0.2500 kg/ha,0.0
same,IPOHE preemergence herbicidal rating,[2]; rate 0.1250 kg/ha,0.0
same,IPOHE preemergence herbicidal rating,[2]; rate 0.2500 kg/ha,1.0
same,ABUTH herbicidal rating,ABUTH (Velvetleaf); rate 0.0158 kg/ha,9.0
same,ABUTH herbicidal rating,ABUTH (Velvetleaf); rate 0.0315 kg/ha,9.0
same,ABUTH herbicidal rating,ABUTH (Velvetleaf); rate 0.0630 kg/ha,9.0
same,TRZAWR herbicidal rating,[3]; rate 0.0158 kg/ha,2.5
same,TRZAWR herbicidal rating,[3]; rate 0.0315 kg/ha,3.0
same,TRZAWR herbicidal rating,[3]; rate 0.0630 kg/ha,3.0
same,ORYSAT preemergence herbicidal rating,"ORYSAT (Rice, Tebonnet); rate 0.1250 kg/ha",0.0
same,ORYSAT preemergence herbicidal rating,"ORYSAT (Rice, Tebonnet); rate 0.2500 kg/ha",0.0
same,Herbicidal rating ECHORC,[4]; [12],7.0
same,Herbicidal rating ECHORC,[4]; [13],7.0
same,Herbicidal rating ECHORC,[4]; [14],7.0
same,SETVI preemergence herbicidal rating,"SETVI (Foxtail, Green); rate 0.1250 kg/ha",0.0
same,SETVI preemergence herbicidal rating,"SETVI (Foxtail, Green); rate 0.2500 kg/ha",2.0
same,Herbicidal rating CYPIR,CYPIR (Rice Flatsedge); [12],0.0
same,Herbicidal rating CYPIR,CYPIR (Rice Flatsedge); [13],0.0
same,Herbicidal rating CYPIR,CYPIR (Rice Flatsedge); [14],0.0
same,CHEAL preemergence herbicidal rating,[5]; rate 0.1250 kg/ha,8.0
same,CHEAL preemergence herbicidal rating,[5]; rate 0.2500 kg/ha,9.0
same,Herbicidal rating ECHORC,[6]; 0.1160 kg/ha,7.0
same,Herbicidal rating ECHORC,[6]; 0.2310 kg/ha,7.0
same,Herbicidal rating ECHORC,[6]; 0.4630 kg/ha,7.0
same,IPOHE herbicidal rating,[7]; rate 0.0158 kg/ha,2.0
same,IPOHE herbicidal rating,[7]; rate 0.0315 kg/ha,6.0
same,IPOHE herbicidal rating,[7]; rate 0.0630 kg/ha,9.0
